Experimental data as given in patent US11497751B2, “Modulators of Rho-associated protein kinase” (Redx Pharma PLC, priority 2018, dated 2022).

Target: T1, N-terminal 6His-tagged ROCK2 catalytic domain 11-552 (Homo sapiens, UniProt O75116)
T1 construct: N-terminal 6His-tagged ROCK2 catalytic domain 11-552; 6His (N); purchased Dundee University, UK; host or cells: baculovirus expression system
Experiment: ROCK2 binding activity: ROCK2 inhibition, ADP-Glo Kinase Assay
Assay type: biochemical
Conditions: 1.25 nM ROCK2, 100 μM long S6 peptide, 20 μM ATP; 1 hour pre-incubation; read-out: ADP-Glo kinase activity assay ROCK2 Category
Method: Assay for ROCK2 inhibition was performed using the protein construct N-terminal 6His-tagged ROCK2 catalytic domain 11-552 (Dundee University, UK). Protein was purified from a baculovirus expression system. Long S6 peptide ([…]) was used as substrate. Kinase reactions were carried out in 15 μl volume in a 96-well plate (black, half area) using 1.25 nM constitutively active ROCK2 kinase, 100 μM long S6 peptide, 20 μM ATP and test compound in DMSO (or DMSO only for controls). The final concentration of DMSO was 1%. Assay buffer was 50 mM HEPES pH 7.5 supplemented with 0.2 mM EDTA, 10 mM magnesium acetate, 0.01% Tween-20, 1 mM DTT and 0.01% BSA. Test compounds were pre-incubated with ROCK2 kinase for 1 hour before addition of ATP and long S6 peptide. After incubation for a further 1 hour, the amount of ADP produced was measured using ADP-Glo Kinase Assay (Promega) as per manufacturer's instructions. The luminescence was measured on a PHERAstar FS (BMG Labtech). The concentration of test compound required to inhibit ADP production by 50% (the IC50) was calculated using a four-parameter logistic function with software by Dotmatics.
The category “+” refers to compounds with a ROCK2 IC50 value of >10 μM. The category “++” refers to compounds with a ROCK2 IC50 value of 10 to 3 μM. The category “+++” refers to compounds with a ROCK2 IC50 value of 3 to 0.3 μM. The category “++++” refers to compounds with a ROCK2 IC50 value of <0.3 μM.

T1 sequence (O75116 11-552): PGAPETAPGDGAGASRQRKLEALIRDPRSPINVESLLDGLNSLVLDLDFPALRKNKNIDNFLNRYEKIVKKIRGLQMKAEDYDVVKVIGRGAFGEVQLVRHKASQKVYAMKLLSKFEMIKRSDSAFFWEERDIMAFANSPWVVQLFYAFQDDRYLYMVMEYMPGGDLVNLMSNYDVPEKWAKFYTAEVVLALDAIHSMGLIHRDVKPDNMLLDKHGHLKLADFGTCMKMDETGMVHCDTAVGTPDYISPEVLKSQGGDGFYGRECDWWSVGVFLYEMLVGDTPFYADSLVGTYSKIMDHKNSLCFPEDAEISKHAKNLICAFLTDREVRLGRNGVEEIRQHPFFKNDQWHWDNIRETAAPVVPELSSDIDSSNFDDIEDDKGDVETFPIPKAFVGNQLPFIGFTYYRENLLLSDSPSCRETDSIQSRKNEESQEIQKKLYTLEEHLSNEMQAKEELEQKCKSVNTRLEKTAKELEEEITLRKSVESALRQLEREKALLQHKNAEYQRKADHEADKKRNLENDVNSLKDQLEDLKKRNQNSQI

| Compound | IC50 |
| --- | --- |
| CNC(=O)c1ccc(-c2nc(Nc3ccc4[nH]ncc4c3Cl)n(C)n2)cc1 [Example 62] | < 300 nM |
| COCc1ccc(-c2nc(Nc3ccc4[nH]ncc4c3Cl)n(C)n2)cc1 [Example 63] | < 300 nM |
| COc1cc(-c2nc(Nc3ccc4[nH]ncc4c3Cl)n(C)n2)ccc1OCC(=O)NCCN(C)C [Example 64] | < 300 nM |
| Cn1nc(-c2cccc(N3CCOCC3)c2)nc1Nc1ccc2[nH]ncc2c1Cl [Example 69] | < 300 nM |
| Cn1nc(-c2ccc(N)nc2)nc1Nc1ccc2[nH]ncc2c1Cl [Example 70] | 300 to 3000 nM |
| CNC(=O)Nc1ccc(-c2nc(Nc3ccc4[nH]ncc4c3Cl)n(C)n2)cc1OC [Example 71] | < 300 nM |
| Cn1nc(-c2ccc3c(c2)OCCO3)nc1Nc1ccc2[nH]ncc2c1Cl [Example 72] | 300 to 3000 nM |
| CC(=O)NCc1ccc(-c2nc(Nc3ccc4[nH]ncc4c3Cl)n(C)n2)cc1 [Example 73] | 300 to 3000 nM |
| Cn1nc(-c2cccc(CNS(C)(=O)=O)c2)nc1Nc1ccc2[nH]ncc2c1Cl [Example 75] | < 300 nM |
| COc1ccc(-c2nc(Nc3ccc4[nH]ncc4c3Cl)n(C)n2)cc1OC [Example 77] | < 300 nM |
| Cn1nc(-c2ccc(S(=O)(=O)N3CCOCC3)cc2)nc1Nc1ccc2[nH]ncc2c1Cl [Example 78] | 3000 to 10000 nM |
| CN(C)C(=O)c1ccc(-c2nc(Nc3ccc4[nH]ncc4c3Cl)n(C)n2)cc1 [Example 82] | 300 to 3000 nM |
| CCC(=O)Nc1ccc(-c2nc(Nc3ccc4[nH]ncc4c3Cl)n(C)n2)cc1OC [Example 83] | < 300 nM |
| COCCOc1cccc(-c2nc(Nc3ccc4[nH]ncc4c3Cl)n(C)n2)c1 [Example 85] | < 300 nM |
| COc1ccc(-c2nc(Nc3ccc4[nH]ncc4c3Cl)n(C)n2)cc1Cl [Example 86] | < 300 nM |
| COc1cc(-c2nc(Nc3ccc4[nH]ncc4c3Cl)n(C)n2)ccc1NCC(=O)NC(C)C [Example 87] | < 300 nM |
| Cn1nc(-c2ccc(CO)cc2)nc1Nc1ccc2[nH]ncc2c1Cl [Example 88] | 300 to 3000 nM |
| CCOC(=O)c1cncc(-c2nc(Nc3ccc4[nH]ncc4c3Cl)n(C)n2)c1 [Example 90] | < 300 nM |
| Cn1nc(-c2cccnc2)nc1Nc1ccc2[nH]ncc2c1Cl [Example 93] | 3000 to 10000 nM |
| CN(C)CCNC(=O)c1ccc(-c2nc(Nc3ccc4[nH]ncc4c3Cl)n(C)n2)cc1 [Example 94] | < 300 nM |
| Cn1nc(-c2ccco2)nc1Nc1ccc2[nH]ncc2c1Cl [Example 96] | 300 to 3000 nM |
| CN1CCc2cc(-c3nc(Nc4ccc5[nH]ncc5c4Cl)n(C)n3)ccc2C1=O [Example 97] | < 300 nM |
| Cn1nc(-c2ccc(N3CCOCC3)cc2)nc1Nc1ccc2[nH]ncc2c1Cl [Example 102] | < 300 nM |
| COc1ccc(-c2nc(Nc3ccc4[nH]ncc4c3Cl)n(C)n2)c(F)c1 [Example 104] | < 300 nM |
| Cn1nc(-c2ccc(C(=O)NCC3CCCO3)cc2)nc1Nc1ccc2[nH]ncc2c1Cl (stereo not shown) [Example 106] | < 300 nM |

| Compound | IC50 |
| --- | --- |
| Cc1cc(-c2nc(Nc3ccc4[nH]ncc4c3Cl)n(C)n2)n(C)n1 [Example 107] | 300 to 3000 nM |
| Cc1ccc(-c2nc(Nc3ccc4[nH]ncc4c3Cl)n(C)n2)cn1 [Example 109] | 3000 to 10000 nM |
| Cn1nc(-c2cn[nH]c2)nc1Nc1ccc2[nH]ncc2c1Cl [Example 111] | 300 to 3000 nM |
| COCc1cccc(-c2nc(Nc3ccc4[nH]ncc4c3Cl)n(C)n2)c1 [Example 113] | > 10000 nM |
| Cn1nc(-c2cnn(CCN3CCOCC3)c2)nc1Nc1ccc2[nH]ncc2c1Cl [Example 117] | 300 to 3000 nM |
| Cn1ccc(-c2nc(Nc3ccc4[nH]ncc4c3Cl)n(C)n2)n1 [Example 119] | 3000 to 10000 nM |
| Cn1nc(-c2c[nH]c3ccncc23)nc1Nc1ccc2[nH]ncc2c1Cl [Example 121] | 3000 to 10000 nM |
| Cn1nc(-c2ccc(OCCn3ccc(=O)cc3)cc2)nc1Nc1ccc2[nH]ncc2c1Cl [Example 122] | < 300 nM |
| Cn1nc(-c2ccccc2N)nc1Nc1ccc2[nH]ncc2c1Cl [Example 123] | 300 to 3000 nM |
| CN(C)c1ccc(-c2nc(Nc3ccc4[nH]ncc4c3Cl)n(C)n2)cn1 [Example 127] | 300 to 3000 nM |
| Cn1nc(-c2ccc(CN)c(F)c2)nc1Nc1ccc2[nH]ncc2c1Cl [Example 128] | < 300 nM |
| Cn1nc(-c2cncc(O)c2)nc1Nc1ccc2[nH]ncc2c1Cl [Example 129] | 300 to 3000 nM |
| Cn1nc(-c2cncc(N)c2)nc1Nc1ccc2[nH]ncc2c1Cl [Example 130] | < 300 nM |
| Cn1nc(-c2cccc(N)c2)nc1Nc1ccc2[nH]ncc2c1Cl [Example 132] | 300 to 3000 nM |
| Cn1nc(-c2ccnc(N)c2)nc1Nc1ccc2[nH]ncc2c1Cl [Example 133] | 300 to 3000 nM |
| Cn1nccc1-c1nc(Nc2ccc3[nH]ncc3c2Cl)n(C)n1 [Example 134] | 300 to 3000 nM |
| CNC(=O)c1cccc(-c2nc(Nc3ccc4[nH]ncc4c3Cl)n(C)n2)c1 [Example 135] | < 300 nM |
| Cn1nc(-c2cccc(OC(F)(F)F)c2)nc1Nc1ccc2[nH]ncc2c1Cl [Example 136] | 300 to 3000 nM |
| Cn1nc(-c2ccc(OC(F)(F)F)cc2)nc1Nc1ccc2[nH]ncc2c1Cl [Example 138] | < 300 nM |
| COc1cc(-c2nc(Nc3ccc4[nH]ncc4c3C)n(C)n2)ccc1OCC(=O)NC1CCNC1 (stereo not shown) [Example 141] | < 300 nM |
| COc1cc(-c2nc(Nc3cc4cn[nH]c4cc3Cl)n(C)n2)ccc1C(=O)NCC(F)(F)F [Example 144] | 3000 to 10000 nM |
| COc1cc(-c2nc(Nc3ccc4[nH]ncc4c3Cl)n(C(C)C)n2)ccc1OCC(=O)NC(C)C [Example 145] | < 300 nM |
| CC(C)NC(=O)COc1ccc(-c2nc(Nc3ccc4[nH]ncc4c3)n(-c3ccccc3F)n2)cc1 [Example 146] | < 300 nM |
| COc1cc(-c2nnc(Nc3ccc4[nH]ncc4c3)n2-c2ccccn2)ccc1OCC(=O)NC(C)C [Example 147] | < 300 nM |
| COc1cc(-c2nc(Nc3ccc4[nH]ncc4c3Cl)n(-c3ccncc3)n2)ccc1OCC(=O)NC(C)C [Example 152] | < 300 nM |

Now from value to molecule:

| IC50 | Compound |
| --- | --- |
| < 300 nM | Cn1nc(-c2ccc3c(c2)OCCC3=O)nc1Nc1ccc2[nH]ncc2c1Cl [Example 66] |
| < 300 nM | COc1cc(-c2nc(Nc3ccc4[nH]ncc4c3Cl)n(C)n2)ccc1OCC(=O)NC(C)C [Example 68] |
| 300 to 3000 nM | Cn1nc(-c2cncnc2)nc1Nc1ccc2[nH]ncc2c1Cl [Example 76] |
| 3000 to 10000 nM | Cn1nc(C2=CCCNC2)nc1Nc1ccc2[nH]ncc2c1Cl [Example 81] |
| > 10000 nM | Cn1nc(C2=CCC(N)CC2)nc1Nc1ccc2[nH]ncc2c1Cl (stereo not shown) [Example 84] |
| < 300 nM | Cn1nc(-c2ccccc2O)nc1Nc1ccc2[nH]ncc2c1Cl [Example 89] |
| < 300 nM | Cn1nc(-c2ccc(O)cc2)nc1Nc1ccc2[nH]ncc2c1Cl [Example 91] |
| > 10000 nM | Cn1nc(C2=CCOCC2)nc1Nc1ccc2[nH]ncc2c1Cl [Example 98] |
| < 300 nM | COc1ccc(-c2nc(Nc3ccc4[nH]ncc4c3Cl)n(C)n2)cc1 [Example 99] |
| < 300 nM | COc1cc(-c2nc(Nc3ccc4[nH]ncc4c3Cl)n(C)n2)ccc1O [Example 101] |
| < 300 nM | CC(C)Oc1ccc(-c2nc(Nc3ccc4[nH]ncc4c3Cl)n(C)n2)cn1 [Example 103] |
| < 300 nM | Cn1nc(-c2ccc(CN3CCOCC3)cc2)nc1Nc1ccc2[nH]ncc2c1Cl [Example 105] |
| 300 to 3000 nM | Cn1nc(C2=CCCC2)nc1Nc1ccc2[nH]ncc2c1Cl [Example 108] |
| 300 to 3000 nM | Cn1nc(-c2cccc(C#N)c2)nc1Nc1ccc2[nH]ncc2c1Cl [Example 110] |
| 300 to 3000 nM | CC(C)n1nccc1-c1nc(Nc2ccc3[nH]ncc3c2Cl)n(C)n1 [Example 112] |
| < 300 nM | COc1ccc(F)c(-c2nc(Nc3ccc4[nH]ncc4c3Cl)n(C)n2)c1 [Example 114] |
| < 300 nM | COCCn1cc(-c2nc(Nc3ccc4[nH]ncc4c3Cl)n(C)n2)cn1 [Example 115] |
| < 300 nM | COC(=O)c1ccc(-c2nc(Nc3ccc4[nH]ncc4c3Cl)n(C)n2)cc1OC [Example 118] |
| 3000 to 10000 nM | Cn1nc(-c2cccc(N)c2)nc1Nc1ccc2[nH]ncc2c1Cl [Example 120] |
| < 300 nM | CNC(=O)c1ccc(-c2nc(Nc3ccc4[nH]ncc4c3Cl)n(C)n2)cn1 [Example 124] |
| < 300 nM | Cn1nc(-c2ccc(S(N)(=O)=O)cc2)nc1Nc1ccc2[nH]ncc2c1Cl [Example 125] |
| < 300 nM | Cn1nc(-c2ccc(C(N)=O)cc2)nc1Nc1ccc2[nH]ncc2c1Cl [Example 131] |
| 300 to 3000 nM | Cn1nc(-c2ccc(Oc3ccccc3)cc2)nc1Nc1ccc2[nH]ncc2c1Cl [Example 137] |
| < 300 nM | CC(C)NC(=O)COc1ccc(-c2nnc(Nc3ccc4[nH]ncc4c3)n2-c2ccccn2)cc1 [Example 148] |
| < 300 nM | COc1cc(-c2nc(Nc3ccc4[nH]ncc4c3Cl)n(-c3ccccc3)n2)ccc1OCC(=O)NC1CCNC1 (stereo not shown) [Example 149] |
| > 10000 nM | COc1cc(-c2nc(Nc3ccc4[nH]ncc4c3Cl)n(-c3ccccn3)n2)ccc1OCC(=O)NC(C)C [Example 151] |
